The target of one assay is T1, WEE1 (Homo sapiens, UniProt P30291+Q96SW2).
T1 construct: endogenous in cells; host or cells: hPBMCs (Milecell Biotechnologies)
The assay can be described thus: Western-blot assay of substrate protein degradation in hPBMCs, WEE1. Particulars: 24 hours of compound treatment, compounds tested at 50 nM and 500 nM (concentration of the table not stated). The class given is cell-based.

For the next assay, the target named is T2, IKZF1 (Homo sapiens, UniProt Q13422+Q96SW2).
T2 construct: endogenous in cells; host or cells: hPBMCs (Milecell Biotechnologies)
Kind of assay: Western-blot assay of substrate protein degradation in hPBMCs, IKZF1. The assay is classed as cell-based. As to conditions: 24 hours of compound treatment, compounds tested at 50 nM and 500 nM (concentration of the table not stated).

Another assay addresses T3, IKZF2 (Homo sapiens, UniProt Q96SW2+Q9UKS7).
T3 construct: endogenous in cells; host or cells: hPBMCs (Milecell Biotechnologies)
The assay can be described thus: Western-blot assay of substrate protein degradation in hPBMCs, IKZF2. The assay is classed as cell-based. Particulars: 24 hours of compound treatment, compounds tested at 50 nM and 500 nM (concentration of the table not stated).

In the next assay the target is T4, IKZF3 (Homo sapiens, UniProt Q96SW2+Q9UKT9).
T4 construct: endogenous in cells; host or cells: hPBMCs (Milecell Biotechnologies)
The assay can be described thus: Western-blot assay of substrate protein degradation in hPBMCs, IKZF3. The assay is classed as cell-based. As to conditions: 24 hours of compound treatment, compounds tested at 50 nM and 500 nM (concentration of the table not stated).

For another assay, the target named is T5, CK1α (Homo sapiens, UniProt P48729+Q96SW2).
T5 construct: endogenous in cells; host or cells: hPBMCs (Milecell Biotechnologies)
The assay can be described thus: Western-blot assay of substrate protein degradation in hPBMCs, CK1α. The assay is classed as cell-based. As to conditions: 24 hours of compound treatment, compounds tested at 50 nM and 500 nM (concentration of the table not stated).

For the next assay, the target named is T6, GSPT1 (Homo sapiens, UniProt P15170+Q96SW2).
T6 construct: endogenous in cells; host or cells: hPBMCs (Milecell Biotechnologies)
The assay can be described thus: Western-blot assay of substrate protein degradation in hPBMCs, GSPT1. The assay is classed as cell-based. Particulars: 24 hours of compound treatment, compounds tested at 50 nM and 500 nM (concentration of the table not stated).

Assay [1] concerns the target T7, human Cereblon WT GST-tagged protein (Homo sapiens, UniProt Q96SW2).
T7 construct: purchased CISBIO 64BDCRBNPEH
The assay can be described thus: CRBN-binding affinity by HTRF (CEREBLON BINDING kit). Particulars: HTRF inhibitory activity, CEREBLON BINDING kit; read-out: HTRF IC50. A general note: In TR-FRET formats the signal depends on donor and acceptor labels being close together.

The next assay has as its system MM.1R. The assay can be described thus: Tumor cell proliferation inhibition (CellTiter-Meiluncell Luminescent Cell Viability Assay), MM.1R. Particulars: Homo sapiens, 96 h, read-out: inhibitory activity (IC50, nM) against tumor cells proliferation, MM.1R.
The next assay has as its system Jurkat. The assay can be described thus: Tumor cell proliferation inhibition (CellTiter-Meiluncell Luminescent Cell Viability Assay), Jurkat. As to conditions: Homo sapiens, 96 h, read-out: inhibitory activity (IC50, nM) against tumor cells proliferation, Jurkat.
The test system of another assay is CAL-62. Kind of assay: Tumor cell proliferation inhibition (CellTiter-Meiluncell Luminescent Cell Viability Assay), CAL-62. Particulars: Homo sapiens, CAL-62, 96 h, read-out: inhibitory activity (IC50, nM) against tumor cells proliferation, CAL-62.
Assay [2] has as its system Human acute T lymphocytic leukemia cells (Molt-4). The assay can be described thus: Tumor cell proliferation inhibition (CellTiter-Meiluncell Luminescent Cell Viability Assay), Molt-4. As to conditions: MOLT-4, 96 h, read-out: inhibitory activity (IC50, nM) against tumor cells proliferation, Molt 4.
A further assay concerns NCI-H1975. Kind of assay: Tumor cell proliferation inhibition (CellTiter-Meiluncell Luminescent Cell Viability Assay), NCI-H1975. Particulars: Homo sapiens, NCI-H1975, 96 h, read-out: inhibitory activity (IC50, nM) against tumor cells proliferation, H1975.
For assay [3], the system named is Human breast cancer cells (MDA-MB-231). The assay can be described thus: Tumor cell proliferation inhibition (CellTiter-Meiluncell Luminescent Cell Viability Assay), MDA-MB-231. As to conditions: MDA-MB-231, 96 h, read-out: inhibitory activity (IC50, nM) against tumor cells proliferation, MDA-MB-231.

T4 sequence (Q9UKT9 whole entry): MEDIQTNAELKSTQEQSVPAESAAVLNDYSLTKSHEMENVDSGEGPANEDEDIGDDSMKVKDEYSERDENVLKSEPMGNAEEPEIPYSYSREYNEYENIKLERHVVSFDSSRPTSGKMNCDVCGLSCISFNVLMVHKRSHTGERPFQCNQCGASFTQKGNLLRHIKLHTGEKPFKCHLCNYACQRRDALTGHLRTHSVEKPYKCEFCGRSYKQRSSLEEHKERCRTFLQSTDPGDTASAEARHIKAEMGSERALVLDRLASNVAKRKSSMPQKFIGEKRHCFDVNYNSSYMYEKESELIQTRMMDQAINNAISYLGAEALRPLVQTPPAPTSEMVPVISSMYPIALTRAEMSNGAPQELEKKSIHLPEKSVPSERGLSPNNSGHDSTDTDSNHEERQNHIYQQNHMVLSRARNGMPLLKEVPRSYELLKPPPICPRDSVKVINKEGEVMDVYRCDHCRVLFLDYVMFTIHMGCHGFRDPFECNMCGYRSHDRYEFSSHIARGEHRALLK
T4 sequence (Q96SW2 whole entry): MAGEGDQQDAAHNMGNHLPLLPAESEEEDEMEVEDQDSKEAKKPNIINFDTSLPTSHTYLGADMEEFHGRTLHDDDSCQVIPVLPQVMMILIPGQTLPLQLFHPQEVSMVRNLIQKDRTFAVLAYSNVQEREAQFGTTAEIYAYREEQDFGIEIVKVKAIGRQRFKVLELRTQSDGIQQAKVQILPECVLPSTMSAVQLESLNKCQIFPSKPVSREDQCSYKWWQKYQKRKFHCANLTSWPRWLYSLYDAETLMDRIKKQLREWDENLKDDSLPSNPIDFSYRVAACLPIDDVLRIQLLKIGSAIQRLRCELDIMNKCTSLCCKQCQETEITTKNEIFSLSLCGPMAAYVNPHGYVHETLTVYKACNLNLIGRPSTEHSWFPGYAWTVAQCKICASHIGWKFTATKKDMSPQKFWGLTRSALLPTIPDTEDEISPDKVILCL
T4 sequence (Q16531 whole entry partner): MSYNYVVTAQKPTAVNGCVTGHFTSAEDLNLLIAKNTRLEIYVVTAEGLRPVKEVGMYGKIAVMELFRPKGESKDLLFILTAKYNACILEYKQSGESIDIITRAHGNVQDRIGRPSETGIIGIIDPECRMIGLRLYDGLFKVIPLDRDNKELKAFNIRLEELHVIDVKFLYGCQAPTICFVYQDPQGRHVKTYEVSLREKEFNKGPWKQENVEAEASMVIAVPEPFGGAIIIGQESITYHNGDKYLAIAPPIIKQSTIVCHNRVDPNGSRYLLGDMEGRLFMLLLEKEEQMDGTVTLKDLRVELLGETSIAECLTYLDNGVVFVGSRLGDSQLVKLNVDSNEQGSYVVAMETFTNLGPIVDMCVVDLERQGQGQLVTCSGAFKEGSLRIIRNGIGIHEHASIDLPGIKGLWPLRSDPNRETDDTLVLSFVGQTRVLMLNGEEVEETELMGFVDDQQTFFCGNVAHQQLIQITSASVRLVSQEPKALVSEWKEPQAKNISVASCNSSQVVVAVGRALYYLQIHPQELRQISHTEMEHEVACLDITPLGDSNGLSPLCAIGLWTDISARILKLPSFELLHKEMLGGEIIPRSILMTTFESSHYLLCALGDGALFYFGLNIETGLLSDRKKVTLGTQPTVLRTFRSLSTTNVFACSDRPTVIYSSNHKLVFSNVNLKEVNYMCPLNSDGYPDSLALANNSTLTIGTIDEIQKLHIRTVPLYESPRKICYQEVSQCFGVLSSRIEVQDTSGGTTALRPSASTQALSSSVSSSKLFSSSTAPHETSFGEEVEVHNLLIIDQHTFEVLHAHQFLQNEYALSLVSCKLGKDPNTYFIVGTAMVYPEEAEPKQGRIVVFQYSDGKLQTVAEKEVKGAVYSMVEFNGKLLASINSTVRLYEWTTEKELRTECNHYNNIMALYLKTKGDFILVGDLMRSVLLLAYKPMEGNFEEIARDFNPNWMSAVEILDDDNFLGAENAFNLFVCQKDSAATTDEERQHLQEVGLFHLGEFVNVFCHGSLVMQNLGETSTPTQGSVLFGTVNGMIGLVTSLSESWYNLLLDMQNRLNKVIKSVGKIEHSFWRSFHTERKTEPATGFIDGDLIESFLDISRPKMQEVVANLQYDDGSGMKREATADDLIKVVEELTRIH
T1 sequence (P30291 whole entry): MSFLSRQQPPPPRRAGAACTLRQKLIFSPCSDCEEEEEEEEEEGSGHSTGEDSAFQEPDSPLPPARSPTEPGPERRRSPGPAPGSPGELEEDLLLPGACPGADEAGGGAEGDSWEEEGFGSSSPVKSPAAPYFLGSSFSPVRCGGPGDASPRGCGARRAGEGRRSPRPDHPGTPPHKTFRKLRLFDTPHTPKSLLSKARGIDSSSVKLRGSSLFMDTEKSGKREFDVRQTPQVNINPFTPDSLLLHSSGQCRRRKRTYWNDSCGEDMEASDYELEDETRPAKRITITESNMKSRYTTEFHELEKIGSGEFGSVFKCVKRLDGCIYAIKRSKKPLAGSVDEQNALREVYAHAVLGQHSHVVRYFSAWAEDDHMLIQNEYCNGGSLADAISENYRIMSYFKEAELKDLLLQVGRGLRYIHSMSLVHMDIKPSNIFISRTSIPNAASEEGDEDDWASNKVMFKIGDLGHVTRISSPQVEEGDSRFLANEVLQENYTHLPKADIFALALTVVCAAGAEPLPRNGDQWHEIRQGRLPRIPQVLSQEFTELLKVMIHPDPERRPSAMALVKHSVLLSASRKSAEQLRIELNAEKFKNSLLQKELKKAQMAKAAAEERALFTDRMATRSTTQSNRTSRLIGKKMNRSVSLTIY
T1 sequence (Q96SW2 whole entry): as the sequence (Q96SW2 whole entry) above
T1 sequence (Q16531 whole entry partner): as the sequence (Q16531 whole entry partner) above
T7 sequence (Q96SW2 whole entry): as the sequence (Q96SW2 whole entry) above
T6 sequence (P15170 whole entry): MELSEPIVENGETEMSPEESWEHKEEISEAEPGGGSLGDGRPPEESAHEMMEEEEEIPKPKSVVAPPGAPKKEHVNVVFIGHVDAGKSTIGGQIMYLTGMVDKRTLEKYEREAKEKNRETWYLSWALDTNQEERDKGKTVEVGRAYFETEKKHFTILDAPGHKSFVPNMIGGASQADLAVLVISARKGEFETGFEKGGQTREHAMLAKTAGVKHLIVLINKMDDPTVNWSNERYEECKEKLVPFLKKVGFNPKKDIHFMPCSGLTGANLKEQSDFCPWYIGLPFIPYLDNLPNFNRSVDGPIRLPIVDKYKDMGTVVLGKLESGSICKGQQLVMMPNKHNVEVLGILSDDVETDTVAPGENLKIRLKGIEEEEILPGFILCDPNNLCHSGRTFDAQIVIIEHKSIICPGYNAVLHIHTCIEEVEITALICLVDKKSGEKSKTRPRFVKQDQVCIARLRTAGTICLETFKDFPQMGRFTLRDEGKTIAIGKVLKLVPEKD
T6 sequence (Q96SW2 whole entry): as the sequence (Q96SW2 whole entry) above
T6 sequence (Q16531 whole entry partner): as the sequence (Q16531 whole entry partner) above
T3 sequence (Q9UKS7 whole entry): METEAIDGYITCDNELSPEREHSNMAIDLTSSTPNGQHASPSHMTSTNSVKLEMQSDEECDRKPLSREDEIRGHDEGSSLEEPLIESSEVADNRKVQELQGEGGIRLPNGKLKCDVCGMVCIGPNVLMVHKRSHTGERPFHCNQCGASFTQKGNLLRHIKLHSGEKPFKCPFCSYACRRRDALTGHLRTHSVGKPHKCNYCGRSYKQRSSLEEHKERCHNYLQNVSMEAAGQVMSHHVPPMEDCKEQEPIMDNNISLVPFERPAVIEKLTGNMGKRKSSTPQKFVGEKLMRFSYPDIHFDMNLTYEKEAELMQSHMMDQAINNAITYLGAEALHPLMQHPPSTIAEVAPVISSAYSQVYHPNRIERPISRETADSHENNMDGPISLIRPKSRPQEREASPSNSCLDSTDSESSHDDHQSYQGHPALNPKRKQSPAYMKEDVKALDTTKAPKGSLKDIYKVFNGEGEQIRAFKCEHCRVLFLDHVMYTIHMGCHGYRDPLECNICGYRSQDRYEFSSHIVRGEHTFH
T3 sequence (Q96SW2 whole entry): as the sequence (Q96SW2 whole entry) above
T3 sequence (Q16531 whole entry partner): as the sequence (Q16531 whole entry partner) above
T2 sequence (Q13422 whole entry): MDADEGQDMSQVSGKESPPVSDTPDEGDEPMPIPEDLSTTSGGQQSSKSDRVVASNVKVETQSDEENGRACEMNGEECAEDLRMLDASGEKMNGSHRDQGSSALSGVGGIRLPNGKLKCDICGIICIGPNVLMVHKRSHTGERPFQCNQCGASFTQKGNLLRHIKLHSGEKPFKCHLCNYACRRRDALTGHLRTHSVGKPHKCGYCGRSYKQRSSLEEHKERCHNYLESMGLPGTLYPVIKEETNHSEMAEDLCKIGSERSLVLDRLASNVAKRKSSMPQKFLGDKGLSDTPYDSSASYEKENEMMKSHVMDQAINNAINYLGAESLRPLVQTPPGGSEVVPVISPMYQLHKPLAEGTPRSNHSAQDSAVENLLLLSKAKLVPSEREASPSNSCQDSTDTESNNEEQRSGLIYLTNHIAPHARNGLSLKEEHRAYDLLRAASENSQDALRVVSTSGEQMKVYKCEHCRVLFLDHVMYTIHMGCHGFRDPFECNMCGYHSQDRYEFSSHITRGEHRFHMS
T2 sequence (Q96SW2 whole entry): as the sequence (Q96SW2 whole entry) above
T2 sequence (Q16531 whole entry partner): as the sequence (Q16531 whole entry partner) above
Method for MM.1R: The tumor cells used herein were cultured in a cell culture medium listed in table 2 at 37°C in an incubator with 5% CO2. Prior to experimentation, all cell lines used were correctly identified by STR profiling, and tested negative for mycoplasma contamination using a mycoplasma detection kit through routine screenings.
On the following day, the test compounds of the present disclosure were subjected to serial dilution. […] Subsequently, 0.5 µL of the test compound dilution was transferred into the 96-well plate containing the cells, with each well containing 100 µL of cell culture medium. […] Into the 96-well plate, the diluted test compounds and corresponding detection reagents were added, resulting in final test compound concentrations of 500 nM and 10 nM, respectively. The experimental procedure is described below using the diluted 2 µM test compound as an example.
After the cells were treated with the compounds of the present disclosure for a specified period (the treatment durations were shown in Table 3), the cell viability assay reagent was added to the culture medium according to the kit's instructions to determine cell viability. […] All controls were treated using the same procedure as the compounds of the present disclosure. The growth inhibition curves for the compounds of the present disclosure were plotted using Prism GraphPad software, and the IC50 values were calculated therefrom.

With `Cc1cccc(N2CCN(Cc3ccc4c(c3)CN(C3CCC(=O)NC3=O)C4=O)CC2)n1` (stereo not drawn) [GT-04530, 3-(5-((4-(6-methylpyridin-2-yl)piperazin-1-yl)methyl)-1-oxoisoindolin-2-yl)piperidine-2,6-dione], the “Weel substrate protein remaining %” value on WEE1 is “A (0% ≤ substrate protein remaining % ≤ 80%)”. Also, at IKZF1, the “IKZF 1 substrate protein remaining %” value is “A (0% ≤ substrate protein remaining % ≤ 80%)”. In addition, the “IKZF2 substrate protein remaining %” value at IKZF2 was “A (0% ≤ substrate protein remaining % ≤ 80%)”. For the same compound, on IKZF3, the “IKZF3 substrate protein remaining %” value was “A (0% ≤ substrate protein remaining % ≤ 80%)”. For the same compound, the “CK1a substrate protein remaining %” value on CK1α is “A (0% ≤ substrate protein remaining % ≤ 80%)”. Moreover, at GSPT1, the “GSPT1 substrate protein remaining %” value is recorded as “A (0% ≤ substrate protein remaining % ≤ 80%)”. Further, the IC50 in assay [1] was 500 to 1000 nM; in the assay with MM.1R, 10 to 50 nM; with Jurkat, 5 to 10 nM; in the assay with CAL-62 it was 10 to 50 nM; in assay [2] it was 10 to 50 nM; in the assay on NCI-H1975, 100 to 500 nM. Besides, the IC50 in assay [3] was 50 to 100 nM.
For `Cc1cc(N2CCN(Cc3ccc4c(c3)CN(C3CCC(=O)NC3=O)C4=O)CC2)cs1` (stereo not drawn) [GT-04549, 3-(5-((4-(5-methylthiophen-3-yl)piperazin-1-yl)methyl)-1-oxoisoindolin-2-yl)piperidine-2,6-dione], on WEE1, the “Weel substrate protein remaining %” value is “A (0% ≤ substrate protein remaining % ≤ 80%)”. Further, at IKZF1, the “IKZF 1 substrate protein remaining %” value is on record as “A (0% ≤ substrate protein remaining % ≤ 80%)”. On IKZF2, the “IKZF2 substrate protein remaining %” value is “A (0% ≤ substrate protein remaining % ≤ 80%)”. The “IKZF3 substrate protein remaining %” value on IKZF3 was “A (0% ≤ substrate protein remaining % ≤ 80%)”. Moreover, on CK1α, the “CK1a substrate protein remaining %” value is on record as “A (0% ≤ substrate protein remaining % ≤ 80%)”. The “GSPT1 substrate protein remaining %” value at GSPT1 is recorded as “A (0% ≤ substrate protein remaining % ≤ 80%)”. The IC50 in [1] was in the range of 500 to 1000 nM; in the assay on MM.1R it was 100 to 500 nM; in the assay with Jurkat, 5 to 10 nM; with CAL-62, 10 to 50 nM; in assay [2], 5 to 10 nM; in the assay on NCI-H1975, 100 to 500 nM. Moreover, in [3], the IC50 was 100 to 500 nM.
`O=C1CCC(N2Cc3cc(CN4CCC(c5cccc(Cl)c5Cl)CC4)ccc3C2=O)C(=O)N1` (stereo not drawn) [GT-04551, 3-(5-((4-(2,3-dichlorophenyl)piperidin-1-yl)methyl)-1-oxoisoindolin-2-yl)piperidine-2,6-dione]: the “Weel substrate protein remaining %” value on WEE1 is recorded as “A (0% ≤ substrate protein remaining % ≤ 80%)”. Moreover, at IKZF1, the “IKZF 1 substrate protein remaining %” value is “A (0% ≤ substrate protein remaining % ≤ 80%)”. Besides, the “IKZF2 substrate protein remaining %” value on IKZF2 is reported as “A (0% ≤ substrate protein remaining % ≤ 80%)”. For the same compound, the “IKZF3 substrate protein remaining %” value on IKZF3 was “A (0% ≤ substrate protein remaining % ≤ 80%)”. Also, on CK1α, the “CK1a substrate protein remaining %” value is on record as “A (0% ≤ substrate protein remaining % ≤ 80%)”. Moreover, the “GSPT1 substrate protein remaining %” value on GSPT1 was “A (0% ≤ substrate protein remaining % ≤ 80%)”. Further, the IC50 in assay [1] is 500 to 1000 nM; in the assay on MM.1R it was 1 to 5 nM; in the assay with Jurkat it was < 1 nM; in the assay on CAL-62, 1 to 5 nM; in assay [2] it was 1 to 5 nM; with NCI-H1975, 5 to 10 nM. In addition, in assay [3], the IC50 lay within 10 to 50 nM.

(Values after patent EP4745137A1 (Gluetacs Therapeutics (Shanghai) Co., Ltd., priority 2023, dated 2025).)
